Measurements from article PMC4410942 (Chemistry & Biology, 2015).

Columns and labels:
ADC (activated PanD) = ADC (activated PanD) (Escherichia coli, UniProt P0A790); settings: without PanZ; 25 °C; 2.5 μM ADC; curves with and without PanZ.AcCoA fitted with a shared KM
[1] = biological target: T1, PanD-PanZ complex (PanD-PanZ.AcCoA) (Escherichia coli, UniProt P37613); experiment: X-ray crystal structure; assay type: binding; settings: site on PanZ near the PanD interface; crystals from PEG 3350, bis-Tris propane pH 7.4; one AcCoA per PanZ
T1 construct: heterooctamer (4 PanD + 4 PanZ), about 124 kDa; with Aspartate 1-decarboxylase

[2] = biological target: T1, PanD-PanZ complex (PanD-PanZ.AcCoA); experiment: X-ray crystal structure; assay type: binding; settings: site on PanZ near the PanD interface; crystals from PEG 3350, bis-Tris propane pH 7.4; one AcCoA per PanZ; remark: listed apart in the source
PanZ = biological target: T2, PanZ (Escherichia coli, UniProt P37613); experiment: 1H-15N HSQC NMR; assay type: binding; settings: 0.2 mM PanZ, 50 mM Tris-HCl pH 7.5, 0.1 M NaCl, 0.1 mM DTT, 25 °C
T2 construct: co-purifies with substoichiometric CoA derivatives; monomer
T2 sequence (P37613 1-127): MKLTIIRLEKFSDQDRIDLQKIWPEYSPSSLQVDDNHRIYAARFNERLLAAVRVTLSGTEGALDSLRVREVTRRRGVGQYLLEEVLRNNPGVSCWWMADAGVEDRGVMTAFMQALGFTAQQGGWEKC

SMILES | KM (ADC (activated PanD)) | X-ray crystal structure [1] | X-ray crystal structure [2] | 1H-15N HSQC NMR (PanZ)
N[C@@H](CC(=O)O)C(=O)O [compound 5, L-aspartate] | Individual curves are fitted to the Michaelis-Menten curve with a shared value of KM | – | – | –
CC(=O)SCCNC(=O)CCNC(=O)[C@H](O)C(C)(C)COP(=O)(O)OP(=O)(O)OC[C@H]1O[C@@H](n2cnc3c(N)ncnc32)[C@H](O)[C@@H]1OP(=O)(O)O [AcCoA] | – | PDB ID 4CRZ (PanD(T57V)-PanZ.AcCoA) | 4CS0 (PanD(S25A)-PanZ.AcCoA) | Addition of excess AcCoA led to simplification of the spectrum (Figure 3D)
